Where a SMILES comes first, the peptide text is derived from it.
How the values were obtained:
[1] = Phase II clinical trial with dnaJP1 in RA: safety, adverse events; format: in vivo, human; settings: 25 mg per os daily, 168 days
Experimental: A double-blinded, placebo-controlled ITT trial was designed to test for the first time if immune tolerization to dnaJp1 observed in the trial translated into clinical amelioration of the disease. dnaJP1 was tested as a first line inducer of remission in patients with early RA.

[2] = tested on: T cells; settings: human, in vivo

C[C@H](NC(=O)[C@H](C)NC(=O)[C@H](Cc1c[nH]cn1)NC(=O)CNC(=O)[C@H](Cc1ccc(O)cc1)NC(=O)[C@H](CCC(N)=O)NC(=O)[C@H](CC(=O)O)NC(=O)[C@H](Cc1ccc(O)cc1)NC(=O)[C@H](C)NC(=O)[C@H](C)NC(=O)[C@H](CCCNC(=N)N)NC(=O)[C@H](CCCCN)NC(=O)[C@@H](N)CCC(N)=O)C(=O)N[C@@H](Cc1ccccc1)C(=O)N[C@@H](CCC(=O)O)C(=O)O [dnaJP1, QKRAAYDQYGHAAFE] (H-QKRAAYDQYGHAAFE-OH)
safety and tolerability [1]: safe and well tolerated
ability of T cells to respond to the recall antigen Tetanus Toxoid [2]: remained intact

From patent publication US9707284B2, “Formulations of peptides and chloroquines for the treatment of pathogenic immune responses in immune mediated diseases” (The Regents of the University of California, priority 2006, dated 2017)
